Results from patent US10245275B2 (ViiV HEALTHCARE UK (NO.4) LIMITED, priority 2014, dated 2019).
Like-named read-outs stand apart in the source and are kept apart here.

What was measured:
[1] = tested on: WT (wild-type HIV virus; recombinant NL4-3 virus); experiment: microbe, parasite or virus in culture; format: cell-based, HIV-1
Procedure, shortened: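 MT-2 cells infected 4-5 days with NL4-3 carrying Renilla luciferase in place of part of nef (Gag P373S), virus made by 293T transfection, with serial inhibitor dilutions. Antiviral activity read as luciferase activity by a modified dual-luciferase read-out.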

[2] = tested on: HIV-1 NL4-3 gag A364V virus; experiment: microbe, parasite or virus in culture; format: cell-based
Procedure, shortened: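 Recombinant NL4-3 reporter virus with Renilla luciferase replacing part of nef, made by transfection of 293T cells. MT-2 cells infected for 4-5 days with serial inhibitor dilutions; antiviral activity quantified by luciferase activity.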

[3] = Human immunodeficiency virus 1, NL43, MT2, read-out: WT (EC50, uM), Table 1 regular screen, class symbol
[4] = Human immunodeficiency virus 1, NL43, MT2, read-out: A364V (EC50, uM), Table 1 regular screen, class symbol
[5] = Human immunodeficiency virus 1, NL43, MT2, read-out: WT (EC50, uM), Table 1 regular screen, MT-2 cells, luciferase readout
[6] = Human immunodeficiency virus 1, NL43, MT2, read-out: A364V (EC50, uM), Table 1 regular screen, MT-2 cells, luciferase readout

Row | Compound | EC50 [1, 3] [µM] | EC50 [2, 4] [µM] | EC50 [1, 5] [µM] | EC50 [2, 6] [µM]
1 | C=C(C)[C@@H]1CC[C@]2(CNCCCN3CCS(=O)(=O)CC3)CC[C@]3(C)[C@H](CC[C@@H]4[C@@]5(C)CC=C(C6=CC[C@@](CF)(C(=O)O)CC6)C(C)(C)[C@@H]5CC[C@]43C)[C@@H]12 [Example 11, (R)-4-((1R,3aS,5aR,5bR,7aR,11aS,11bR,13aR,13bR)-3a-(((3-(1,1-dioxidothiomorpholino)propyl)amino)methyl)-5a,5b, 8,8,11a-pentamethyl-1-(prop-1-en-2-yl)-2,3,3a,4,5,5a,5b,6,7,7a,8,11,11a,11b,12,13,13a,13b-octadecahydro-1H-cyclopenta[a]chrysen-9-yl)-1-(fluoromethyl)cyclohex-3-enecarboxylic acid] | < 0.05 | < 0.05 | – | –
2 | C=C(C)[C@@H]1CC[C@]2(NCCN3CCC(C(=O)O)(C(=O)OCC)CC3)CC[C@]3(C)[C@H](CC[C@@H]4[C@@]5(C)CC=C(C6=CC[C@@](CF)(C(=O)O)CC6)C(C)(C)[C@@H]5CC[C@]43C)[C@@H]12 [Example 17] | – | – | 0.0194 | 3
3 | C=C(C)[C@@H]1CC[C@]2(NCC(=O)N3CCC(C)(O)CC3)CC[C@]3(C)[C@H](CC[C@@H]4[C@@]5(C)CC=C(C6=CC[C@](CF)(C(=O)O)CC6)C(C)(C)[C@@H]5CC[C@]43C)[C@@H]12 [Example 30, (S)-1-(fluoromethyl)-4-((1R,3aS,5aR,5bR,7aR,11aS,11bR,13aR,13bR)-3a-((2-(4-hydroxy-4-methylpiperidin-1-yl)-2-oxoethyl)amino)-5a,5b,8,8,11a-pentamethyl-1-(prop-1-en-2-yl)-2,3,3a,4,5,5a,5b,6,7,7a,8,11,11a,11b,12,13,13a,13b-octadecahydro-1H-cyclopenta[a]chrysen-9-yl)cyclohex-3-enecarboxylic acid] | – | – | 0.00298 | 0.551
4 | C=C(C)[C@@H]1CC[C@]2(NCCN3CCC(C(=O)OCC)(C(=O)OCC)CC3)CC[C@]3(C)[C@H](CC[C@@H]4[C@@]5(C)CC=C(C6=CC[C@@](CF)(C(=O)O)CC6)C(C)(C)[C@@H]5CC[C@]43C)[C@@H]12 [Example 13, (R)-4-((1R,3aS,5aR,5bR,7aR,11aS,11bR,13aR,13bR)-3a-((2-(4,4-bis(ethoxycarbonyl)piperidin-1-yl)ethyl)amino)-5a,5b, 8,8,11a-pentamethyl-1-(prop-1-en-2-yl)-2,3,3a,4,5,5a,5b,6,7,7a,8,11,11a,11b,12,13,13a,13b-octadecahydro-1H-cyclopenta[a]chrysen-9-yl)-1-(fluoromethyl)cyclohex-3-enecarboxylic acid] | – | – | 0.0188 | 0.196
5 | C=C(C)[C@@H]1CC[C@]2(NCC(=O)N3CCOCC3)CC[C@]3(C)[C@H](CC[C@@H]4[C@@]5(C)CC=C(C6=CC[C@](CF)(C(=O)O)CC6)C(C)(C)[C@@H]5CC[C@]43C)[C@@H]12 [Example 32, (S)-1-(fluoromethyl)-4-((1R,3aS,5aR,5bR,7aR,11aS,11bR,13aR,13bR)-5a,5b, 8,8,11a-pentamethyl-3a-((2-morpholino-2-oxoethyl)amino)-1-(prop-1-en-2-yl)-2,3,3a,4,5,5a,5b,6,7,7a,8,11,11a,11b,12,13,13a,13b-octadecahydro-1H-cyclopenta[a]chrysen-9-yl)cyclohex-3-enecarboxylic acid] | < 0.05 | > 0.05 | – | –
6 | C=C(C)[C@@H]1CC[C@]2(NCCN3CC(C)S(=O)(=O)C(C)C3)CC[C@]3(C)[C@H](CC[C@@H]4[C@@]5(C)CC=C(C6=CC[C@@](CF)(C(=O)O)CC6)C(C)(C)[C@@H]5CC[C@]43C)[C@@H]12 (stereo partly drawn) [Example 24, (1R)-4-((1R,3aS,5aR,5bR,7aR,11aS,11bR,13aR,13bR)-3a-((2-(2,6-dimethyl-1,1-dioxidothiomorpholino)ethyl)amino)-5a,5b,8,8,11a-pentamethyl-1-(prop-1-en-2-yl)-2,3,3a,4,5,5a,5b,6,7,7a,8,11,11a,11b,12,13,13a,13b-octadecahydro-1H-cyclopenta[a]chrysen-9-yl)-1-(fluoromethyl)cyclohex-3-enecarboxylic acid] | < 0.05 | > 0.05 | – | –
7 | C=C(C)[C@@H]1CC[C@]2(CN(CCCN3CCS(=O)(=O)CC3)C(C)=O)CC[C@]3(C)[C@H](CC[C@@H]4[C@@]5(C)CC=C(C6=CC[C@@](CF)(C(=O)O)CC6)C(C)(C)[C@@H]5CC[C@]43C)[C@@H]12 [Example 12, (R)-4-((1R,3aS,5aR,5bR,7aR,11aS,11bR,13aR,13bR)-3a-((N-(3-(1,1-dioxidothiomorpholino)propyl)acetamido)methyl)-5a,5b,8,8,11a-pentamethyl-1-(prop-1-en-2-yl)-2,3,3a,4,5,5a,5b,6,7,7a,8,11,11a,11b,12,13,13a,13b-octadecahydro-1H-cyclopenta[a]chrysen-9-yl)-1-(fluoromethyl)cyclohex-3-enecarboxylic acid] | < 0.05 | > 0.05 | – | –
8 | C=C(C)[C@@H]1CC[C@]2(NCCN3C[C@@H]4CC3CS4(=O)=O)CC[C@]3(C)[C@H](CC[C@@H]4[C@@]5(C)CC=C(C6=CC[C@](CF)(C(=O)O)CC6)C(C)(C)[C@@H]5CC[C@]43C)[C@@H]12 (stereo in doubt) [Example 4, (S)-4-((1R,3aS,5aR,5bR,7aR,11aS,11bR,13aR,13bR)-3a-((2-((1S,4S)-2,2-dioxido-2-thia-5-azabicyclo[2.2.1]heptan-5-yl)ethyl)amino)-5a,5b, 8,8,11a-pentamethyl-1-(prop-1-en-2-yl)-2,3,3a,4,5,5a,5b,6,7,7a,8,11,11a,11b,12,13,13a,13b-octadecahydro-1H-cyclopenta[a]chrysen-9-yl)-1-(fluoromethyl)cyclohex-3-enecarboxylic acid] | – | – | 0.00141 | 0.0392
9 | C=C(C)[C@@H]1CC[C@]2(NCC=C(C3CC3)C3CC3)CC[C@]3(C)[C@H](CC[C@@H]4[C@@]5(C)CC=C(C6=CC[C@](CF)(C(=O)O)CC6)C(C)(C)[C@@H]5CC[C@]43C)[C@@H]12 [Example 2-6, (S)-4-((1R,3aS,5aR,5bR,7aR,11aS,11bR,13aR,13bR)-3a-((3,3-dicyclopropylallyl)amino)-5a,5b,8,8,11a-pentamethyl-1-(prop-1-en-2-yl)-2,3,3a,4,5,5a,5b,6,7,7a,8,11,11a,11b,12,13,13a,13b-octadecahydro-1H-cyclopenta[a]chrysen-9-yl)-1-(fluoromethyl)cyclohex-3-enecarboxylic acid] | – | – | 0.011 | 3
10 | C=C(C)[C@@H]1CC[C@]2(NCCN3CCOCC3)CC[C@]3(C)[C@H](CC[C@@H]4[C@@]5(C)CC=C(C6=CC[C@](CF)(C(=O)O)CC6)C(C)(C)[C@@H]5CC[C@]43C)[C@@H]12 [Example 3, (S)-1-(fluoromethyl)-4-((1R,3aS,5aR,5bR,7aR,11aS,11bR,13aR,13bR)-5a,5b,8,8,11a-pentamethyl-3a-((2-morpholinoethyl)amino)-1-(prop-1-en-2-yl)-2,3,3a,4,5,5a,5b,6,7,7a,8,11,11a,11b,12,13,13a,13b-octadecahydro-1H-cyclopenta[a]chrysen-9-yl)cyclohex-3-enecarboxylic acid] | – | – | 0.00453 | 0.679
11 | C=C(C)[C@@H]1CC[C@]2(NCC(=O)N3C[C@@H]4C[C@H]3CS4(=O)=O)CC[C@]3(C)[C@H](CC[C@@H]4[C@@]5(C)CC=C(C6=CC[C@](CF)(C(=O)O)CC6)C(C)(C)[C@@H]5CC[C@]43C)[C@@H]12 [Example 37, (S)-4-((1R,3aS,5aR,5bR,7aR,11aS,11bR,13aR,13bR)-3a-((2-((1S,4S)-2,2-dioxido-2-thia-5-azabicyclo[2.2.1]heptan-5-yl)-2-oxoethyl)amino)-5a,5b,8,8,11a-pentamethyl-1-(prop-1-en-2-yl)-2,3,3a,4,5,5a,5b,6,7,7a,8,11,11a,11 b,12,13,13a,13b-octadecahydro-1H-cyclopenta[a]chrysen-9-yl)-1-(fluoromethyl)cyclohex-3-enecarboxylic acid] | < 0.05 | > 0.05 | – | –
12 | C=C(C)[C@@H]1CC[C@]2(NCC(O)CN3CCS(=O)(=O)CC3)CC[C@]3(C)[C@H](CC[C@@H]4[C@@]5(C)CC=C(C6=CC[C@](CF)(C(=O)O)CC6)C(C)(C)[C@@H]5CC[C@]43C)[C@@H]12 (stereo partly drawn) [Example 2-8, (1S)-4-((1R,3aS,5aR,5bR,7aR,11aS,11bR,13aR,13bR)-3a-((3-(1,1-dioxidothiomorpholino)-2-hydroxypropyl)amino)-5a,5b, 8,8,11a-pentamethyl-1-(prop-1-en-2-yl)-2,3,3a,4,5,5a,5b,6,7,7a,8,11,11a,11b,12,13,13a,13b-octadecahydro-1H-cyclopenta[a]chrysen-9-yl)-1-(fluoromethyl)cyclohex-3-enecarboxylic acid] | – | – | 0.00233 | 1.91
13 | C=C(C)[C@@H]1CC[C@]2(NCCC3(O)COC3)CC[C@]3(C)[C@H](CC[C@@H]4[C@@]5(C)CC=C(C6=CC[C@](CF)(C(=O)O)CC6)C(C)(C)[C@@H]5CC[C@]43C)[C@@H]12 [Example 2-10, (S)-1-(fluoromethyl)-4-((1R,3aS,5aR,5bR,7aR,11aS,11bR,13aR,13bR)-3a-((2-(3-hydroxyoxetan-3-yl)ethyl)amino)-5a,5b, 8,8,11a-pentamethyl-1-(prop-1-en-2-yl)-2,3,3a,4,5,5a,5b,6,7,7a,8,11,11a,11b,12,13,13a,13b-octadecahydro-1H-cyclopenta[a]chrysen-9-yl)cyclohex-3-enecarboxylic acid] | < 0.05 | > 0.05 | – | –
